The values that follow come from ChEMBL document CHEMBL1201862, “PubChem BioAssay data set” (2004).

Calls of active or inactive are those of the source. Rule as the data show it: actives have a measured EC50 and inactives only a lower limit.

Assay [1] concerns the target T1, Corticotropin-releasing factor receptor 2/Corticotropin-releasing factor-binding protein (Homo sapiens, UniProt P24387+Q13324).
T1 sequence (Q13324 whole entry): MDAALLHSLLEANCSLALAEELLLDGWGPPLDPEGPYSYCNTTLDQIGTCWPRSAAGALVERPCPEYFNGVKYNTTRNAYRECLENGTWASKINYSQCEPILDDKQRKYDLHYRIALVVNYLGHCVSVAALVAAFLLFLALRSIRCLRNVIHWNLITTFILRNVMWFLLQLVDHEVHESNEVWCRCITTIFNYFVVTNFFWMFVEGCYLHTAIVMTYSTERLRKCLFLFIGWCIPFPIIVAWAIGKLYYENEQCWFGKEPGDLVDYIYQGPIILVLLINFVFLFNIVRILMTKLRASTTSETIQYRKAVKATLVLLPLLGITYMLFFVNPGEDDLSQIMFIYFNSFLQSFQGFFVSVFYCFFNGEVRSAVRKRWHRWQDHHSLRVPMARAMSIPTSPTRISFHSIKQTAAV
T1 sequence (P24387 whole entry): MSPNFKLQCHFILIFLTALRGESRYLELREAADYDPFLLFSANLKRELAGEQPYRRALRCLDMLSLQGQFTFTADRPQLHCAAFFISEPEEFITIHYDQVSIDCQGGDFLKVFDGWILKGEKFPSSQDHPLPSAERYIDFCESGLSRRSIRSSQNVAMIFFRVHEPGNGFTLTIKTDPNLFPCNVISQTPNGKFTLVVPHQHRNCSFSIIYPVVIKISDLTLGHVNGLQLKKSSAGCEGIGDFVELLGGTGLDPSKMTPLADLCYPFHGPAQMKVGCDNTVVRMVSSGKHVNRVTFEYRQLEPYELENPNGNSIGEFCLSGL
The experiment in a line: activators of CRF receptor 2 with binding protein – uHTS hits, confirmation (AID 602473). The class given is functional. Particulars: read-out: EC50_Mean.

The test system of another assay is Streptococcus. The experiment in a line: GAS UMAA2166 growth inhibition – luminescence, BacTiterGlo, counter-screen for streptokinase expression inhibitor project, dose response (AID 1915).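 Also: potency for reduction of bacterial viability or growth.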 The class given is functional, organism-based. In general terms: A counterscreen serves to expose hits that act by an unwanted route or on another target.
The target in a further assay is T2, Streptokinase A (Streptococcus pyogenes serotype M1, UniProt P10520).
T2 sequence (P10520 whole entry): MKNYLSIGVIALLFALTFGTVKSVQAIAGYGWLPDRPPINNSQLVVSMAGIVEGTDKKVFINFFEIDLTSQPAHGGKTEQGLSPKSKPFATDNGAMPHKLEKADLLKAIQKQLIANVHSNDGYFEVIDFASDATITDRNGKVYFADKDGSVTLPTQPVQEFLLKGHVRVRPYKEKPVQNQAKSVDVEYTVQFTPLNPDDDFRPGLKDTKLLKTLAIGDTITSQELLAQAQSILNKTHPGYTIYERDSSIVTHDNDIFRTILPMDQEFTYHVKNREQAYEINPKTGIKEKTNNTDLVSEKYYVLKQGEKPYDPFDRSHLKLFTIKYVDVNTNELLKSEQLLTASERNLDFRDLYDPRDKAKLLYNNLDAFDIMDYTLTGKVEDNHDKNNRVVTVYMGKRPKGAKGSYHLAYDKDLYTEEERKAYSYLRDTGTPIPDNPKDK
Put plainly: viability-normalized secreted streptokinase activity reduction – plasminogen activation absorbance, OD405, dose response (AID 1914).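 Also: secreted streptokinase activity via plasminogen activation per viability signal from cell pellet.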 The class given is functional, Streptococcus pyogenes M1 GAS.

Assay [2] concerns Streptococcus sp. 'group A'. Put plainly: Streptococcus pyogenes SK(-)GAS viability under kanamycin – luminescence, BacTiterGlo, confirmation, counter-screen for streptokinase expression inhibitor project, dose response (AID 1900). It counts as functional, organism-based.
The nature of assay [3]: NIH3T3 cell viability loss – ATP luminescence, mouse fibroblasts, counter-screen, dose response (AID 2010).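 Also: cells exposed to compound for about 90 hours before reading.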 The class given is functional, cell-based.
The nature of assay [4]: Trypanosoma cruzi growth suppression in host cells – NIH3T3 host cells, beta-gal luminescence, confirmation (AID 2044).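 Also: intracellular parasites grown in NIH/3T3 mouse fibroblasts as host cells; luminescent beta-galactosidase reporter signal from transgenic T. cruzi replicating inside host cells; inhibitors lower the luminescence signal.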 It counts as functional, cell-based.

As for `CCN=C(S)N(CCc1ccc(S(N)(=O)=O)cc1)C1CC(=O)N(c2ccccc2)C1=O` (stereo not given), in assay [1], the EC50 is 18.5 µM (active).

Turning to `Cc1ccsc1C(=O)N(c1nc2ccccc2s1)c1c(C)cccc1C`, the EC50 in the assay with Streptococcus is > 150 µM (not active); on Streptokinase A, 7.09 µM (inconclusive); in assay [2], 16.7 µM (active).

`CC(=N)/C(C#N)=C(/O)CSc1nc2cc(Cl)ccc2c(=O)n1Cc1ccco1`: the EC50 is > 60 µM (inconclusive) in assay [3]; 16.2 µM (active) with Streptococcus; > 150 µM (not active) on Streptokinase A; 11.8 µM (active) in assay [2]; 3.43 µM (active) in assay [4].

For `O=C(CSC(=S)N1CCCCC1)Nc1nc(-c2ccccc2)c(-c2ccccc2)o1`, the EC50 was > 150 µM (not active) in the assay on Streptococcus, > 150 µM (not active) at Streptokinase A and 1.51 µM (active) in assay [2].

Consider `O=C(c1ccc(S(=O)(=O)Nc2ccccc2)cc1)N1CCCC(C(F)(F)F)C1` (stereo not given), for which, in assay [1], the EC50 was 10.5 µM (active).

Regarding `O=C(COc1cccc(Cl)c1)Nc1ccccc1N1CCCCC1`, the figures for the EC50 (in the assay on Streptococcus; on Streptokinase A; in assay [2]) were > 150 µM (not active), 11.1 µM (active) and 21.1 µM (active), respectively.

Consider `O=C(NC(=S)Nc1ccc(Cl)c(C(=O)O)c1)c1cccc(COc2ccccc2)c1`, for which the EC50 was > 150 µM (not active) in the assay with Streptococcus, > 150 µM (not active) at Streptokinase A and 13 µM (active) in assay [2].

On to `CC(C)(C)c1ccccc1OCCCCCn1ccnc1`, for which the EC50 in assay [3] is > 60 µM (not active); with Streptococcus, > 150 µM (not active); on Streptokinase A, > 150 µM (not active); in assay [2] it was 19.1 µM (active); in assay [4], 1.32 µM (active).

Turning to `COc1ccc(-c2coc3c(C)c4oc(=O)c(CCC(=O)O)c(C)c4cc23)cc1`, the EC50 with Streptococcus was 15.4 µM (active); at Streptokinase A it was > 150 µM (not active); in assay [2] it was 3.74 µM (active).

As to `CCOc1ccc2c(c1)c1nnc(SCC(=O)N3CCC(C)CC3)nc1n2C`, the EC50 in the assay with Streptococcus was > 150 µM (not active); on Streptokinase A, > 150 µM (not active); in assay [2] it was 24.2 µM (active).

Regarding `COc1ccc(NC(=N)SCc2ccccn2)cc1`, the EC50 in assay [1] is 15.6 µM (active).

`Cc1ccc(S(=O)(=O)N2CCN(c3ncnc4scc(-c5ccccc5)c34)CC2)cc1`: the EC50 in assay [1] was 2.65 µM (active).

`Cc1ccc(C(=O)Nc2nnc(S(=O)(=O)N3CCN(c4ccc(F)cc4)CC3)s2)cc1`: the values for the EC50 in the assay with Streptococcus and at Streptokinase A were 109 µM (active) and > 150 µM (not active), respectively.

Turning to `CCCn1c(NC(=O)C23CC4CC(CC(O)(C4)C2)C3)nc2ccccc21`, the EC50 in the assay on Streptococcus and at Streptokinase A was > 150 µM (not active) throughout.

Regarding `CC(=O)Oc1ccc(/C=N/NS(=O)(=O)c2ccccc2)cc1`, the EC50 (with Streptococcus; at Streptokinase A; in assay [2]) was > 150 µM (not active) in each case.

`COc1ccc(C(=O)Cn2cnc3ccccc3c2=O)c(OC)c1`: in assay [1], the EC50 was > 53 µM (inactive).

On to `CCCCCCCCCCC(=O)NNC(=O)c1c(O)c2ccccc2n(CC)c1=O`, for which the EC50 in the assay with Streptococcus is 4.38 µM (active); at Streptokinase A, > 150 µM (not active); in assay [2] it was 0.337 µM (active).

As to `COc1ccc(CN(C2CCCCC2C)S(=O)(=O)c2ccc(S(=O)(=O)N(C)C)cc2)cc1OC` (stereo not given), the EC50 in assay [1] was 5.42 µM (active).

As to `Cc1nc2c(C)cccn2c(=O)c1NC(=O)c1ccc2c(c1)OCO2`, the EC50 (in the assay on Streptococcus; at Streptokinase A; in assay [2]) was > 150 µM (not active) in each case.

As to `Cc1ccc2c(c1)C(=O)CC1(CCC(C(C)(C)C)CC1)O2` (stereo not given), the EC50 is 14.2 µM (active) in the assay with Streptococcus, 12.6 µM (active) on Streptokinase A and 9.31 µM (active) in assay [2].

Turning to `COc1ccc(CNS(=O)(=O)NCc2ccccc2)cc1OC`, the EC50 in assay [1] is > 53 µM (inactive).

Regarding `CC1(c2ccc(OC(F)F)cc2)NC(=O)N(CC(=O)Nc2ccc3c(c2)OCO3)C1=O` (stereo not given), the EC50 in assay [1] was 5.24 µM (active).

Turning to `Cc1cc(Br)c(OCc2ccc(C(=O)N/N=C3\CC4CC=CC34)cc2)c(Br)c1` (stereo not given), the EC50 in the assay on Streptococcus was 44.5 µM (active); on Streptokinase A it was > 150 µM (not active); in assay [2] it was 4.08 µM (active).

In the case of `FC(F)(F)c1cccc(Nc2nc(N3CCCC3)nc(N3CCCC3)n2)c1`, the EC50 is 9.85 µM (active) in the assay on Streptococcus, 17.5 µM (inconclusive) at Streptokinase A and 4.06 µM (active) in assay [2].

For `CCOC(=O)c1ccc(CNC(=O)Cn2nnc(-c3ccccc3)n2)o1`, the EC50 in assay [1] is > 53 µM (inactive).

Turning to `CC(=O)Nc1ccc(/C=N/N2C(=O)NC(C)(c3ccc(OC(F)F)cc3)C2=O)cc1` (stereo not given), in assay [1], the EC50 was 1.37 µM (active).

As for `Cc1nn(C)c(C(=O)N/N=C/c2cccc(Oc3ccccc3)c2)c1Br`, the EC50 in assay [1] is > 53 µM (inactive).

In the case of `C/C(=N\NC(=O)c1ccc(Cl)c(Cl)c1)c1ccc(Br)s1`, the EC50 in assay [3] was 8.11 µM (active); with Streptococcus, 14.7 µM (active); at Streptokinase A, > 150 µM (not active); in assay [2] it was 2.12 µM (active); in assay [4], 0.597 µM (active).

`CCOC(=O)c1cnc(-n2nc(C)cc2C)nc1N(CC)CC`: the EC50 was > 150 µM (not active) with Streptococcus, > 150 µM (not active) on Streptokinase A and 25.3 µM (active) in assay [2].

`CCCn1c(=O)c(C(=O)NNC(=O)c2ccccc2Cl)c(O)c2ccccc21`: the EC50 in assay [1] is 5.81 µM (active).
